Tests used:
TYK2 JH2 = target: T1, TYK2 JH2 (Homo sapiens, UniProt P29597); assay: TYK2 JH2 binding assay (KINOMEscan KdELECT competitive binding); conditions: TYK2 JH2 domain, KINOMEscan KdELECT (Assay A); read-out: Biochemical TYK2_JH2_Kd
T1 construct: purchased DiscoverX (KINOMEscan KdELECT service); host or cells: E. coli BL21-derived (T7 phage display) or HEK-293
In short: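 Beads carrying a biotinylated ligand were mixed with tagged JH2 kinase and compound (11 points, 3-fold steps, 0.9% DMSO) and shaken 1 h at room temperature. After washing, kinase was released with 0.5 μM untagged ligand over 30 min and measured by qPCR to derive Kd.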

[1] = test system: JAK1/TYK2 pSTAT5 (Tyr694/699) in THP-1 cell line; assay: IFNa-stimulated JAK1/TYK2 pSTAT5 (Tyr694/699) inhibition cellular assay, AlphaLISA; type: cell-based; conditions: Homo sapiens; THP-1 cells, IFNa-stimulated, AlphaLISA (Assay B); read-out: Cellular THP1_IFNa-pSTATS_IC50
In short: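 Compound dilutions were dispensed first, and HBSS-suspended THP-1 cells were added on top (final top concentration 10000 nM, 6-fold series). After 1 h at 37 °C, IFNa (100 ng/mL as added) was applied for 30 min. Cells were then lysed and pSTAT5 was quantified by AlphaLISA.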

T1 sequence (P29597 589-875 limits assumed): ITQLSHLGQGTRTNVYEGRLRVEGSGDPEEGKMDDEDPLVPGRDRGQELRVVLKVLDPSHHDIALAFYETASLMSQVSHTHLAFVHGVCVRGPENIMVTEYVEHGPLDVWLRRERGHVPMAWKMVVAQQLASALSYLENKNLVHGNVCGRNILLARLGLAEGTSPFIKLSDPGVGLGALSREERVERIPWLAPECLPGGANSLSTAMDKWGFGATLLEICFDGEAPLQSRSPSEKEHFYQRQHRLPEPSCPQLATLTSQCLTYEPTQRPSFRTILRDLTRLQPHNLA

| SMILES | Kd (TYK2 JH2) [nM] | IC50 [1] [nM] |
| --- | --- | --- |
| CNc1ncc(-c2ccnn2Cc2ccccc2)c2cc(NC(=O)C3CC3)ncc12 [Example 20, N-(5-(1-benzyl-1H-pyrazol-5-yl)-8-(methylamino)-2,7-naphthyridin-3-yl)cyclopropanecarboxamide] | ≤ 100 | > 500 |
| CNc1ncc(-c2ccc3c(c2)OCO3)c2cc(NC(=O)C3CC3)ncc12 [Example 21, N-(5-(benzo[d][1,3]dioxol-5-yl)-8-(methylamino)-2,7-naphthyridin-3-yl)cyclopropanecarboxamide] | ≤ 100 | > 500 |
| CNc1ncc(-c2ccc(C)s2)c2cc(NC(=O)C3CC3)ncc12 [Example 22, N-(8-(methylamino)-5-(5-methylthiophen-2-yl)-2,7-naphthyridin-3-yl)cyclopropanecarboxamide] | ≤ 100 | > 500 |
| CNc1ncc(-c2cc(C)n[nH]2)c2cc(NC(=O)C3CC3)ncc12 [Example 23, N-(5-(3-methyl-1H-pyrazol-5-yl)-8-(methylamino)-2,7-naphthyridin-3-yl)cyclopropanecarboxamide] | ≤ 100 | > 500 |
| CNc1ncc(-c2cn[nH]c2)c2cc(NC(=O)C3CC3)ncc12 [Example 24, N-(8-(methylamino)-5-(1H-pyrazol-4-yl)-2,7-naphthyridin-3-yl)cyclopropanecarboxamide] | ≤ 100 | > 500 |
| CNc1ncc(-c2cnn(C)c2)c2cc(NC(=O)C3CC3)ncc12 [Example 25, N-(5-(1-methyl-1H-pyrazol-4-yl)-8-(methylamino)-2,7-naphthyridin-3-yl)cyclopropanecarboxamide] | ≤ 100 | > 500 |
| CNc1ncc(-c2ncsc2C)c2cc(NC(=O)C3CC3)ncc12 [Example 26, N-(8-(methylamino)-5-(5-methylthiazol-4-yl)-2,7-naphthyridin-3-yl)cyclopropanecarboxamide] | ≤ 100 | > 500 |
| CNc1ncc(C)c2cc(NC(=O)C3CC3)ncc12 [Example 27, N-(5-methyl-8-(methylamino)-2,7-naphthyridin-3-yl)cyclopropanecarboxamide] | ≤ 100 | > 500 |
| CNc1ncc(C2CC2)c2cc(NC(=O)C3CC3)ncc12 [Example 28, N-(5-cyclopropyl-8-(methylamino)-2,7-naphthyridin-3-yl)cyclopropanecarboxamide] | ≤ 100 | > 500 |
| CNc1ncc(-c2cccc(S(C)(=O)=O)c2)c2cc(NC(=O)C3CC3)ncc12 [Example 29, N-(8-(methylamino)-5-(3-(methylsulfonyl)phenyl)-2,7-naphthyridin-3-yl)cyclopropanecarboxamide] | ≤ 100 | > 500 |
| CNc1ncc(-c2ocnc2C)c2cc(NC(=O)C3CC3)ncc12 [Example 30, N-(8-(methylamino)-5-(4-methyloxazol-5-yl)-2,7-naphthyridin-3-yl)cyclopropanecarboxamide] | ≤ 100 | > 500 |
| CNc1ncc(CCc2ccccc2)c2cc(NC(=O)C3CC3)ncc12 [Example 31, N-(8-(methylamino)-5-phenethyl-2,7-naphthyridin-3-yl)cyclopropanecarboxamide] | ≤ 100 | > 500 |
| CNc1ncc(-c2nc(C)co2)c2cc(NC(=O)C3CC3)ncc12 [Example 32, N-(8-(methylamino)-5-(4-methyloxazol-2-yl)-2,7-naphthyridin-3-yl)cyclopropanecarboxamide] | ≤ 100 | ≤ 500 |
| CNc1ncc(/C=C/c2ccccc2)c2cc(NC(=O)C3CC3)ncc12 [Example 33, (E)-N-(8-(methylamino)-5-styryl-2,7-naphthyridin-3-yl)cyclopropanecarboxamide] | ≤ 100 | ≤ 500 |
| CNc1ncc(Cc2ccc(OC)cc2)c2cc(NC(=O)C3CC3)ncc12 [Example 34, N-(5-(4-methoxybenzyl)-8-(methylamino)-2,7-naphthyridin-3-yl)cyclopropanecarboxamide] | 100 to 1000 | > 500 |
| CNc1ncc(-c2ccccc2C)c2cc(NC(=O)C3CC3)ncc12 [Example 35, N-(8-(methylamino)-5-(o-tolyl)-2,7-naphthyridin-3-yl)cyclopropanecarboxamide] | ≤ 100 | > 500 |
| CNc1ncc(-c2conc2C)c2cc(NC(=O)C3CC3)ncc12 [Example 36, N-(8-(methylamino)-5-(3-methylisoxazol-4-yl)-2,7-naphthyridin-3-yl)cyclopropanecarboxamide] | ≤ 100 | > 500 |
| CNc1ncc(-c2ccc(C#N)cc2)c2cc(NC(=O)C3CC3)ncc12 [Example 37, N-(5-(4-cyanophenyl)-8-(methylamino)-2,7-naphthyridin-3-yl)cyclopropanecarboxamide] | ≤ 100 | > 500 |
| CNc1ncc(-c2cnn(CC(F)(F)F)c2)c2cc(NC(=O)C3CC3)ncc12 [Example 38, N-(8-(methylamino)-5-(1-(2,2,2-trifluoroethyl)-1H-pyrazol-4-yl)-2,7-naphthyridin-3-yl)cyclopropanecarboxamide] | ≤ 100 | > 500 |
| CNc1ncc(-c2c(C)cnn2C2CCCCO2)c2cc(NC(=O)C3CC3)ncc12 (stereo not drawn) [Example 39, N-(5-(4-methyl-1-(tetrahydro-2H-pyran-2-yl)-1H-pyrazol-5-yl)-8-(methylamino)-2,7-naphthyridin-3-yl)cyclopropanecarboxamide] | 1000 to 10000 | > 500 |
| CNc1ncc(-c2[nH]ncc2C)c2cc(NC(=O)C3CC3)ncc12 [Example 40, N-(5-(4-methyl-1H-pyrazol-5-yl)-8-(methylamino)-2,7-naphthyridin-3-yl)cyclopropanecarboxamide] | ≤ 100 | > 500 |
| CNc1ncc(-c2ccccc2C(N)=O)c2cc(NC(=O)C3CC3)ncc12 [Example 41, 2-(6-(cyclopropanecarboxamido)-1-(methylamino)-2,7-naphthyridin-4-yl)benzamide] | 100 to 1000 | > 500 |
| CNc1ncc(-c2ccccc2C#N)c2cc(NC(=O)C3CC3)ncc12 [Example 42, N-(5-(2-cyanophenyl)-8-(methylamino)-2,7-naphthyridin-3-yl)cyclopropanecarboxamide] | 100 to 1000 | > 500 |
| CNc1ncc(Cc2ccccc2)c2cc(NC(=O)C3CC3)ncc12 [Example 43, N-(5-benzyl-8-(methylamino)-2,7-naphthyridin-3-yl)cyclopropanecarboxamide] | ≤ 100 | > 500 |
| CNc1ncc(CO)c2cc(NC(=O)C3CC3)ncc12 [Example 44, N-(5-(hydroxymethyl)-8-(methylamino)-2,7-naphthyridin-3-yl)cyclopropanecarboxamide] | ≤ 100 | > 500 |
| CNc1ncc(COc2ccccc2)c2cc(NC(=O)C3CC3)ncc12 [Example 45, N-(8-(methylamino)-5-(phenoxymethyl)-2,7-naphthyridin-3-yl)cyclopropanecarboxamide] | ≤ 100 | > 500 |
| CNc1ncc(-c2ccc(S(C)(=O)=O)cc2)c2cc(NC(=O)C3CC3)ncc12 [Example 46, N-(8-(methylamino)-5-(4-(methylsulfonyl)phenyl)-2,7-naphthyridin-3-yl)cyclopropanecarboxamide] | ≤ 100 | > 500 |

Source: patent US20240025906A1 (NEURON23, INC., priority 2022, published 2024)
